Assay results as given in patent publication US20260297081A1, “COMPOUNDS AND METHODS OF TREATING CANCERS” (Cullgen Inc., priority 2023, published 2026).

Assays:
Assay type in all cases: cell-based
[1] = tested on: MCF7 cells; assay: Anti-proliferation (viability) of MCF7 cells (Table 7, FIG. 2B); conditions: Homo sapiens, MCF7, MCF7 cells, 3-6 days, 10-point serial dilution; read-out: GI IC50 in MCF-7
[2] = tested on: Calu-1 cells; assay: Anti-proliferation (viability) of NSCLC Calu-1 cells, 3 days (Table 7, FIG. 2B); conditions: Homo sapiens, 72 h; Calu-1 cells, 3 days, 10-point serial dilution; read-out: GI IC50 in Calu-1
Procedure: To evaluate anti-proliferation activities of heterobifunctional compounds, NSCLC Calu-1 or ER+ breast cancer T47D cells were treated with selected heterobifunctional compounds following a 10-point serial dilution for 3 or 6 days, respectively.
To verify that heterobifunctional compound-mediated degradation is dependent on the binding to CDK4-cyclin D complex, a negative control compound, CPD-143, which is derived from active heterobifunctional compound CPD-10 was designed. CPD-143 bears the same DDB1 ligand and linker as CPD-10 but with a modified warhead to impair the binding of the control compound to CDK4.

[3] = target: CDK4 (Homo sapiens, UniProt P11802+Q16531); assay: CDK4 percentage degradation in Calu-1 cells (Table 6); set-up: Cells that express cyclin D1-3 and CDK4/6 proteins were treated with heterobifunctional compounds; endogenous in cells; host or cells: Calu-1; conditions: 16 hours
Sequence of CDK4 (P11802 2-303 limits assumed): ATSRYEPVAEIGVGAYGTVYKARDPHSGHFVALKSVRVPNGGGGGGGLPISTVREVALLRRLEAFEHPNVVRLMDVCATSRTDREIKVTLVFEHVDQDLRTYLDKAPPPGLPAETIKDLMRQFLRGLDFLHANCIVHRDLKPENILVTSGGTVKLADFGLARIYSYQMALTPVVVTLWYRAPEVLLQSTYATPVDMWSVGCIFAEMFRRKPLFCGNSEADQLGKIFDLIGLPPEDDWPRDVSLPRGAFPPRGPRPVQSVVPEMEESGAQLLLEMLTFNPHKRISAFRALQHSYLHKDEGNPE
Sequence of CDK4 (P24385 whole entry partner): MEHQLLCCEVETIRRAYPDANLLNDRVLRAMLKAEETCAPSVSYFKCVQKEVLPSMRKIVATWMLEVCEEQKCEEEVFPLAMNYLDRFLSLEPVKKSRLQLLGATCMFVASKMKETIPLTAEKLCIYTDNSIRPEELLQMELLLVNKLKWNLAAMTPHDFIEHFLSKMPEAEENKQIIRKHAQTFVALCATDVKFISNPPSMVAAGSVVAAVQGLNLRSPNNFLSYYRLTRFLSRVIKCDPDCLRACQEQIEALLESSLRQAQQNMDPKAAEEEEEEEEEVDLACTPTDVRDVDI
Sequence of CDK4 (Q16531 2-1140 limits assumed): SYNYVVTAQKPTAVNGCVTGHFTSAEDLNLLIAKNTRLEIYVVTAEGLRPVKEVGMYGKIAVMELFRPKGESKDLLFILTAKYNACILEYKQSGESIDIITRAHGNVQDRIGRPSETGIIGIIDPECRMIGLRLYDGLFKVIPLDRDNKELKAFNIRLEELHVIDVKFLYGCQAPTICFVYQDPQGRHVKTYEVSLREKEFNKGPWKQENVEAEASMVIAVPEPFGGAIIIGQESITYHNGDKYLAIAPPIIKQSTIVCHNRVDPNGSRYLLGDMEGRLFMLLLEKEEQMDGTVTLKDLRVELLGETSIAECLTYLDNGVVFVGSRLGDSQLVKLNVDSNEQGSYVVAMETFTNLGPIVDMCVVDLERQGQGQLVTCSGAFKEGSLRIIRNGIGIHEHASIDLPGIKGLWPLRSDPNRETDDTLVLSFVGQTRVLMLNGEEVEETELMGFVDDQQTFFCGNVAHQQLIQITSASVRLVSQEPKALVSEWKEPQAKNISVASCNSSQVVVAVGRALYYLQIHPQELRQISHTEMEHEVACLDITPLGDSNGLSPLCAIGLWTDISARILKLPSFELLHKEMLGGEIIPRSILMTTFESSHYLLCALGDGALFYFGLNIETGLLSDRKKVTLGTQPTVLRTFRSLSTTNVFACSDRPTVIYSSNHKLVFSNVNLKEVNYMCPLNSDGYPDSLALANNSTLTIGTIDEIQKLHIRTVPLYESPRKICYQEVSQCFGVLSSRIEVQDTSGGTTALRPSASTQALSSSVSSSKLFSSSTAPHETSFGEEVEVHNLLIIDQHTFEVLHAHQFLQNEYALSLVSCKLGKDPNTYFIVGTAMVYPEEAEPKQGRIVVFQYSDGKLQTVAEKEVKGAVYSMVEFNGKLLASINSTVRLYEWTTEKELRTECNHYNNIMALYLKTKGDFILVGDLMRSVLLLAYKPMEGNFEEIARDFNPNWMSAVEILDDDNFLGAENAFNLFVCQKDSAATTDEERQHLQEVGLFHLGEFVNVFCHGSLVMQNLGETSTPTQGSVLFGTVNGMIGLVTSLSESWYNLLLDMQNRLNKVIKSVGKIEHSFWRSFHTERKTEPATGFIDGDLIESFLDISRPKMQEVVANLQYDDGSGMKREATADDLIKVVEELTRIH
Procedure, shortened: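 Calu-1 cells exposed to heterobifunctional compounds at 40 nM or 200 nM for 16 h. Cyclin D1 and CDK4 levels measured by Western blot of RIPA lysates (BCA-normalised loading), bands quantified by densitometry and expressed as percentage degradation.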

Row | Compound | IC50 [1] | IC50 [2] | inhibition at 0.04 µM ([3]; 40 nM) | inhibition at 0.2 µM ([3]; 200 nM)
1 | [2H]C([2H])([2H])Nc1ccc(C(=O)Nc2cn(C)c(C3CC3)n2)c(NC2CCN(C(=O)CCN3CCN(c4ccc(Nc5ncc6c(C)c(C(C)=O)c(=O)n(C7CCCC7)c6n5)nc4)CC3)C2)n1 (stereo not drawn) [CPD-273, 2-((1-(3-(4-(6-((6-acetyl-8-cyclopentyl-5-methyl-7-oxo-7,8-dihydropyrido[2,3-d]pyrimidin-2-yl)amino)pyridin-3-yl)piperazin-1-yl)propanoyl)pyrrolidin-3-yl)amino)-N-(2-cyclopropyl-1-methyl-1H-imidazol-4-yl)-6-((methyl-d3)amino)nicotinamide] | > 100 nM | ≥ 50 nM | – | –
2 | CC(=O)c1c(C)c2cnc(Nc3ccc(CN4CCC(NC(=O)C5CC6(CC(Nc7nc(NC(C)C)ccc7C(=O)Nc7ccc(N(C)C)nn7)C6)C5)CC4)cn3)nc2n(C2CCCC2)c1=O (stereo not drawn) [CPD-486, 2-((6-((1-((6-((6-acetyl-8-cyclopentyl-5-methyl-7-oxo-7,8-dihydropyrido[2,3-d]pyrimidin-2-yl)amino)pyridin-3-yl)methyl)piperidin-4-yl)carbamoyl)spiro[3.3]heptan-2-yl)amino)-N-(6-(dimethylamino)pyridazin-3-yl)-6-(isopropylamino)nicotinamide] | < 50 nM | ≤ 10 nM | – | –
3 | CCc1ccc(C(=O)Nc2ccc(N(C)C)nn2)c(N[C@H]2CC[C@H](C(=O)N3CCC(N4CCN(c5ccc(Nc6ncc7c(C)c(C(C)=O)c(=O)n(C8CCCC8)c7n6)nc5)CC4)C3)CC2)c1 (stereo partly drawn) [CPD-526, 2-((trans-4-(3-(4-(6-((6-acetyl-8-cyclopentyl-5-methyl-7-oxo-7,8-dihydropyrido[2,3-d]pyrimidin-2-yl)amino)pyridin-3-yl)piperazin-1-yl)pyrrolidine-1-carbonyl)cyclohexyl)amino)-N-(6-(dimethylamino)pyridazin-3-yl)-4-ethylbenzamide] | < 50 nM | ≤ 10 nM | – | –
4 | CCN1CCc2cc(-c3nc(Nc4ccc(CN5CCN(CC(=O)N6CC7(CC(Nc8nc(NC(C)C)ccc8C(=O)Nc8ccc(N(C)C)nn8)C7)C6)CC5)cn4)ncc3F)ccc2C1=O [CPD-553, N-(6-(dimethylamino)pyridazin-3-yl)-2-((2-(2-(4-((6-((4-(2-ethyl-1-oxo-1,2,3,4-tetrahydroisoquinolin-6-yl)-5-fluoropyrimidin-2-yl)amino)pyridin-3-yl)methyl)piperazin-1-yl)acetyl)-2-azaspiro[3.3]heptan-6-yl)amino)-6-(isopropylamino)nicotinamide] | > 100 nM | ≥ 50 nM | – | –
5 | CC(=O)c1c(C)c2cnc(Nc3ccc(N4CCN(C5CCN(C(=O)N6CCC7(CCC(Nc8nc(NC(C)C)ccc8C(=O)Nc8ccc(N(C)C)nn8)C7)C6)C5)CC4)cn3)nc2n(C2CCCC2)c1=O (stereo not drawn) [CPD-561, 2-((2-(3-(4-(6-((6-acetyl-8-cyclopentyl-5-methyl-7-oxo-7,8-dihydropyrido[2,3-d]pyrimidin-2-yl)amino)pyridin-3-yl)piperazin-1-yl)pyrrolidine-1-carbonyl)-2-azaspiro[4.4]nonan-7-yl)amino)-N-(6-(dimethylamino)pyridazin-3-yl)-6-(isopropylamino)nicotinamide] | > 100 nM | ≤ 10 nM | – | –
6 | CC(=O)c1c(C)c2cnc(Nc3ccc(CN4CCN(C(=O)CN5CC6(CC(Nc7nc(NC(C)C)ccc7C(=O)Nc7ccc(N(C)C)nn7)C6)C5)CC4)cn3)nc2n(C2CCCC2)c1=O [CPD-538, 2-((2-(2-(4-((6-((6-acetyl-8-cyclopentyl-5-methyl-7-oxo-7,8-dihydropyrido[2,3-d]pyrimidin-2-yl)amino)pyridin-3-yl)methyl)piperazin-1-yl)-2-oxoethyl)-2-azaspiro[3.3]heptan-6-yl)amnion)-N-(6-(dimethylamino)pyridazin-3-yl)-6-(isopropylamino)nicotinamide] | 50 to 100 nM | ≤ 10 nM | – | –
7 | [2H]C([2H])([2H])Nc1ccc(C(=O)Nc2cn3c(n2)CCC3)c(NC2CC3(C2)CN(C(=O)CC(N2CCN(c4ccc(Nc5ncc6c(C)c(C(C)=O)c(=O)n(C7CCCC7)c6n5)nc4)CC2)C(F)(F)F)C3)n1 (stereo not drawn) [CPD-567, 2-((2-(3-(4-(6-((6-acetyl-8-cyclopentyl-5-methyl-7-oxo-7,8-dihydropyrido[2,3-d]pyrimidin-2-yl)amino)pyridin-3-yl)piperazin-1-yl)-4,4,4-trifluorobutanoyl)-2-azaspiro[3.3]heptan-6-yl)amino)-N-(6,7-dihydro-5H-pyrrolo[1,2-a]imidazol-2-yl)-6-((methyl-d3)amino)nicotinamide] | 50 to 100 nM | ≤ 10 nM | – | –
8 | CNc1ccc(C(=O)Nc2ccn(C)n2)c(NC2CC3(C2)CN(C(=O)CCN2CCN(c4ccc(Nc5ncc6c(C)c(C(C)=O)c(=O)n(C7CCCC7)c6n5)nc4)CC2)C3)n1 [CPD-144, 2-((2-(3-(4-(6-((6-acetyl-8-cyclopentyl-5-methyl-7-oxo-7,8-dihydropyrido[2,3-d]pyrimidin-2-yl)amino)pyridin-3-yl)piperazin-1-y)propanoyl)-2-azaspiro[3.3]heptan-6-yl)amino)-N-(1-methyl-1H-pyrazol-3-yl)-6-(methylamino)nicotinamide] | – | 10 to 50 nM | 50 to 80% | > 80%
9 | CC(=O)c1c(C)c2cnc(Nc3ccc(N4CCN(C5CCN(C(=O)CN6CC7(CC(Nc8nc(NC(C)C)ccc8C(=O)Nc8ccc(N(C)C)nn8)C7)C6)C5)CC4)cn3)nc2n(C2CCCC2)c1=O (stereo not drawn) [CPD-518, 2-((2-(2-(3-(4-(6-((6-acetyl-8-cyclopentyl-5-methyl-7-oxo-7,8-dihydropyrido[2,3-d]pyrimidin-2-yl)amino)pyridin-3-yl)piperazin-1-yl)pyrrolidin-1-yl)-2-oxoethyl)-2-azaspiro[3.3]heptan-6-yl)amino)-N-(6-(dimethylamino)pyridazin-3-yl)-6-(isopropylamino)nicotinamide] | – | ≤ 10 nM | – | –
10 | CC(=O)c1c(C)c2cnc(Nc3ccc(N4CC5(CC(N(C)CC(=O)N6CCC(Nc7nc(NC(C)C)ccc7C(=O)Nc7ccc(N(C)C)nn7)CC6)C5)C4)cn3)nc2n(C2CCCC2)c1=O [CPD-484, 2-((1-(N-(2-(6-((6-acetyl-8-cyclopentyl-5-methyl-7-oxo-7,8-dihydropyrido[2,3-d]pyrimidin-2-yl)amino)pyridin-3-yl)-2-azaspiro[3.3]heptan-6-yl)-N-methylglycyl)piperidin-4-yl)amino)-N-(6-(dimethylamino)pyridazin-3-yl)-6-(isopropylamino)nicotinamide] | – | 10 to 50 nM | – | –
11 | [2H]C([2H])([2H])Nc1ccc(C(=O)Nc2cccc(OC)n2)c(N[C@H]2CC[C@H](C(=O)N3CCC(N4CCN(c5ccc(Nc6ncc7c(C)c(C(C)=O)c(=O)n(C8CCCC8)c7n6)nc5)CC4)C3)CC2)n1 (stereo partly drawn) [CPD-523, 2-((trans-4-(3-(4-(6-((6-acetyl-8-cyclopentyl-5-methyl-7-oxo-7,8-dihydropyrido[2,3-d]pyrimidin-2-yl)amino)pyridin-3-yl)piperazin-1-yl)pyrrolidine-1-carbonyl)cyclohexyl)amino)-N-(6-methoxypyridin-2-yl)-6-((methyl-d3)amino)nicotinamide] | – | ≥ 50 nM | – | –
12 | CC(=O)c1c(C)c2cnc(Nc3ccc(N4CCN(C5CCN(C(=O)NC6CCC(Nc7nc(NC(C)C)ccc7C(=O)Nc7ccc(N(C)C)nn7)CC6)C5)CC4)cn3)nc2n(C2CCCC2)c1=O (stereo not drawn) [CPD-483, 2-((4-(3-(4-(6-((6-acetyl-8-cyclopentyl-5-methyl-7-oxo-7,8-dihydropyrido[2,3-d]pyrimidin-2-yl)amino)pyridin-3-yl)piperazin-1-yl)pyrrolidine-1-carboxamido)cyclohexyl)amino)-N-(6-(dimethylamino)pyridazin-3-yl)-6-(isopropylamino)nicotinamide] | – | ≥ 50 nM | – | –
13 | CC(=O)c1c(C)c2cnc(Nc3ccc(N4CCN(C5CCN(C(=O)[C@H]6CC[C@H](Nc7cc(NC(C)C)ccc7C(=O)Nc7ccc(N(C)C)nn7)CC6)C5)CC4)cn3)nc2n(C2CCCC2)c1=O (stereo partly drawn) [CPD-527, 2-((trans-4-(3-(4-(6-((6-acetyl-8-cyclopentyl-5-methyl-7-oxo-7,8-dihydropyrido[2,3-d]pyrimidin-2-yl)amino)pyridin-3-yl)piperazin-1-yl)pyrrolidine-1-carbonyl)cyclohexyl)amino)-N-(6-(dimethylamino)pyridazin-3-yl)-4-(isopropylamino)benzamide] | – | ≤ 10 nM | – | –
14 | CC(=O)c1c(C)c2cnc(Nc3ccc(N4CCC(N(C)C(=O)CN5CC(Nc6nc(NC(C)C)ccc6C(=O)Nc6ccc(N(C)C)nn6)C5)CC4)cn3)nc2n(C2CCCC2)c1=O [CPD-517, 2-((1-(2-((1-(6-((6-acetyl-8-cyclopentyl-5-methyl-7-oxo-7,8-dihydropyrido[2,3-d]pyrimidin-2-yl)amino)pyridin-3-yl)piperidin-4-yl)(methyl)amino)-2-oxoethyl)azetidin-3-yl)amino)-N-(6-(dimethylamino)pyridazin-3-yl)-6-(isopropylamino)nicotinamide] | – | ≥ 50 nM | – | –
15 | CC(=O)c1c(C)c2cnc(Nc3ccc(N4CCC5(CCN(CC(=O)NC67CC(Nc8nc(NC(C)C)ccc8C(=O)Nc8ccc(N(C)C)nn8)(C6)C7)C5)C4)cn3)nc2n(C2CCCC2)c1=O (stereo not drawn) [CPD-496, 2-((3-(2-(7-(6-((6-acetyl-8-cyclopentyl-5-methyl-7-oxo-7,8-dihydropyrido[2,3-d]pyrimidin-2-yl)amino)pyridin-3-yl)-2,7-diazaspiro[4.4]nonan-2-yl)acetamido)bicyclo[1.1.1]pentan-1-yl)amino)-N-(6-(dimethylamino)pyridazin-3-yl)-6-(isopropylamino)nicotinamide] | – | ≤ 10 nM | – | –
